± gives the standard deviation of the averaged measurements.
Experiments:
Test in all cases: level (log10 ratio to DMSO vehicle control); higher = higher biomarker level / cell amount than vehicle control
[1] = compound: C=C(C)C(=O)OCC(F)(F)C(F)(F)C(F)(F)F [2,2,3,3,4,4,4-Heptafluorobutyl methacrylate]; conditions: in DMSO
Protocol: (§1)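 BioMAP Diversity Plus panel of 12 human primary cell co-culture systems (3C, 4H, LPS, SAg, BT, BF4T, BE3C, CASM3C, HDF3CGF, KF3CT, MyoF, Mphg). Compounds were added 1 h before stimulation and left for 24 h (MyoF 48 h; BT 72 h for soluble read-outs or 6 d for IgG). Biomarkers were read by ELISA, cytotoxicity by SRB, PBMC viability and proliferation by Alamar Blue. Each well value was divided by the mean of 8 DMSO control wells on the same plate and log10 transformed; duplicate blinded samples were tested at 4 concentrations.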

[2] = compound: Cc1ccc(S(=O)(=O)OCC(F)(F)C(F)(F)C(F)(F)C(F)(F)C(F)(F)C(F)F)cc1 [1H,1H,7H-Perfluoroheptyl 4-methylbenzenesulfonate]; conditions: in DMSO
Protocol: as §1

[3] = compound: FC(F)(F)C(F)(F)C(F)(F)C(F)(F)CCI [1H,1H,2H,2H-Perfluorohexyl iodide]; conditions: in DMSO
Protocol: as §1

[4] = compound: O=C(Cl)C(F)(F)C(F)(F)C(F)(F)C(=O)Cl [Hexafluoroglutaryl chloride]; conditions: in DMSO
Protocol: as §1

[5] = compound: O=S(=O)(OCC(F)(F)F)C(F)(F)C(F)(F)C(F)(F)C(F)(F)F [2,2,2-Trifluoroethyl perfluorobutanesulfonate]; conditions: in DMSO
Protocol: as §1

[6] = compound: OCC(F)(F)C(F)(F)C(F)(F)C(F)(F)C(F)(F)C(F)(F)C(F)(F)C(F)(F)C(F)(F)C(F)(F)C(F)(F)F [11:1 Fluorotelomer alcohol]; conditions: in DMSO
Protocol: as §1

[7] = compound: OCCCC(F)(F)C(F)(F)C(F)(F)C(F)(F)C(F)(F)C(F)(F)C(F)(F)C(F)(F)F [3-(Perfluorooctyl)propanol]; conditions: 6700 nM; in DMSO
Protocol: as §1

| Test System | level (log10) ([1]; 6700 nM) | level (log10) ([1]; 20000 nM) | level (log10) ([1]; 60000 nM) | level (log10) ([2]; 6700 nM) | level (log10) ([2]; 20000 nM) | level (log10) ([2]; 60000 nM) | level (log10) ([3]; 6700 nM) | level (log10) ([3]; 20000 nM) | level (log10) ([3]; 60000 nM) | level (log10) ([4]; 6700 nM) | level (log10) ([4]; 20000 nM) | level (log10) ([4]; 60000 nM) | level (log10) ([5]; 6700 nM) | level (log10) ([5]; 20000 nM) | level (log10) ([5]; 60000 nM) | level (log10) ([6]; 1100 nM) | level (log10) ([6]; 3300 nM) | level (log10) ([6]; 10000 nM) | level (log10) [7] |
| --- | --- | --- | --- | --- | --- | --- | --- | --- | --- | --- | --- | --- | --- | --- | --- | --- | --- | --- | --- |
| KF3CT:IL-1alpha | -0.005 ± 0.0071 | -0.007 ± 0.014 | -0.0005 ± 0.016 | -0.053 ± 0.024 | -0.01 ± 0.024 | 0.013 ± 0.038 | 0.0115 ± 0.037 | 0.0105 ± 0.015 | 0.051 ± 0.0071 | -0.0085 ± 0.0078 | 0.0095 ± 0.013 | -0.012 ± 0.018 | -0.011 ± 0.03 | -0.003 ± 0.011 | 0.0195 ± 0.0078 | 0.0015 ± 0.028 | -0.0425 ± 0.0064 | -0.021 ± 0.011 | -0.0985 ± 0.012 |
| KF3CT:CXCL8/IL-8 | -0.0045 ± 0.023 | -0.0035 ± 0.015 | -0.0035 ± 0.013 | -0.005 ± 0.0028 | -0.103 ± 0.013 | -0.04 ± 0.014 | 0.0135 ± 0.044 | 0.0355 ± 0.042 | 0.0315 ± 0.047 | -0.0215 ± 0.013 | -0.0275 ± 0.035 | -0.0085 ± 0.0092 | -0.0165 ± 0.0035 | 0.0045 ± 0.00071 | 0.017 ± 0.0057 | 0 ± 0.013 | 0.015 | 0.014 ± 0.025 | 0.003 ± 0.0057 |
| lMphg:CCL3/MIP-1alpha | -0.0095 ± 0.0092 | -0.0355 ± 0.044 | -0.0065 ± 0.012 | -0.007 ± 0.0014 | 0.0145 ± 0.0021 | 0.0465 ± 0.033 | -0.0185 ± 0.00071 | -0.0515 ± 0.023 | -0.013 ± 0.014 | 0.001 ± 0.069 | 0.012 ± 0.034 | 0.0145 ± 0.073 | -0.025 ± 0.052 | -0.078 ± 0.054 | -0.119 ± 0.018 | 0.014 ± 0.011 | -0.0165 ± 0.026 | -0.06 ± 0.021 | -0.018 ± 0.0014 |
| MyoF:MMP-1 | -0.0215 ± 0.023 | -0.0075 ± 0.0092 | 0.0165 ± 0.047 | -0.0115 ± 0.0035 | 0.0185 ± 0.016 | 0.048 ± 0.014 | -0.0055 ± 0.023 | -0.0045 ± 0.039 | 0.066 ± 0.11 | -0.043 ± 0.05 | -0.026 ± 0.054 | -0.0195 ± 0.018 | 0.018 ± 0.16 | 0.043 ± 0.16 | 0.0695 ± 0.12 | -0.027 ± 0.0042 | -0.0445 ± 0.0021 | 0.004 ± 0.052 | 0.0315 ± 0.011 |
| HDF3CGF:CXCL8/IL-8 | 0.0005 ± 0.0021 | -0.0045 ± 0.0092 | 0.006 ± 0.0028 | -0.0045 ± 0.011 | 0.0065 ± 0.0035 | 0.0095 ± 0.0021 | 0.003 ± 0.0057 | -0.0025 ± 0.0035 | 0.0015 ± 0.011 | 0.0025 ± 0.012 | -0.0015 ± 0.005 | 0.013 ± 0.018 | 0.003 ± 0.0071 | 0.001 ± 0.0071 | 0.0125 ± 0.0064 | -0.002 ± 0.0057 | -0.007 | -0.001 | -0.0145 ± 0.0092 |
| lMphg:sIL-10 | -0.0245 ± 0.028 | -0.0155 ± 0.005 | -0.0165 ± 0.0035 | -0.194 ± 0.063 | -0.0825 ± 0.14 | -0.0155 ± 0.091 | -0.072 ± 0.047 | -0.043 ± 0.03 | -0.0495 ± 0.042 | -0.049 ± 0.045 | -0.102 ± 0.0035 | 0.0335 ± 0.076 | 0.072 ± 0.0042 | 0.0465 ± 0.0035 | -0.171 ± 0.052 | -0.0255 ± 0.069 | -0.0875 ± 0.066 | -0.216 ± 0.082 | -0.027 ± 0.013 |
| CASM3C:SRB | 0.0045 ± 0.0021 | -0.0005 ± 0.0092 | -0.004 ± 0.0057 | 0.002 ± 0.0014 | -0.0055 ± 0.0078 | -0.0125 ± 0.0035 | 0 ± 0.014 | -0.0005 ± 0.0092 | -0.005 ± 0.033 | -0.0045 ± 0.0021 | 0.007 ± 0.0042 | 0.0115 ± 0.016 | -0.006 | -0.005 ± 0.0028 | -0.0055 ± 0.0064 | 0.0075 ± 0.005 | 0.0095 ± 0.0064 | 0.008 ± 0.0071 | -0.008 ± 0.0042 |
| KF3CT:MMP-9 | -0.029 | -0.0115 ± 0.00071 | 0.0085 ± 0.0092 | -0.014 ± 0.031 | -0.073 ± 0.025 | -0.0915 ± 0.03 | 0.0055 ± 0.0078 | 0.0035 ± 0.00071 | 0.0115 ± 0.005 | -0.0515 ± 0.013 | -0.0255 ± 0.028 | -0.024 ± 0.03 | -0.012 ± 0.017 | -0.016 ± 0.035 | -0.001 ± 0.025 | -0.042 ± 0.0099 | -0.071 ± 0.027 | -0.0545 ± 0.026 | -0.053 ± 0.0085 |
| KF3CT:TIMP-2 | -0.004 ± 0.016 | -0.0165 ± 0.00071 | -0.0035 ± 0.012 | -0.0015 ± 0.005 | 0.0025 ± 0.029 | 0.017 ± 0.021 | -0.0185 ± 0.005 | -0.009 ± 0.018 | -0.008 ± 0.02 | -0.029 ± 0.023 | 0.003 ± 0.0099 | 0.02 ± 0.034 | -0.049 ± 0.0057 | -0.0215 ± 0.049 | -0.0495 ± 0.00071 | -0.014 ± 0.0028 | -0.0405 ± 0.013 | 0.002 ± 0.016 | -0.0255 ± 0.063 |
| CASM3C:CD87/uPAR | -0.018 ± 0.0099 | -0.0235 ± 0.029 | -0.018 ± 0.0028 | -0.03 ± 0.024 | -0.02 ± 0.016 | -0.004 ± 0.0099 | -0.0015 ± 0.018 | -0.024 ± 0.051 | -0.0345 ± 0.033 | -0.014 ± 0.045 | -0.0225 ± 0.012 | -0.015 ± 0.038 | -0.047 ± 0.064 | -0.0215 ± 0.059 | -0.048 ± 0.033 | 0.0055 ± 0.025 | -0.004 ± 0.021 | 0.0085 ± 0.032 | -0.021 ± 0.0085 |
| BE3C:MMP-1 | -0.012 ± 0.0014 | -0.0055 ± 0.015 | 0.048 ± 0.014 | 0.044 ± 0.0099 | 0.051 ± 0.038 | 0.094 ± 0.061 | 0 ± 0.023 | 0.017 ± 0.021 | 0.0975 ± 0.023 | -0.001 ± 0.014 | -0.008 ± 0.014 | 0.0065 ± 0.016 | 0.01 ± 0.031 | 0.0165 ± 0.00071 | 0.0165 ± 0.00071 | -0.0275 ± 0.018 | -0.0685 ± 0.015 | -0.077 | 0.064 ± 0.0042 |
| HDF3CGF:CXCL9/MIG | -0.0185 ± 0.005 | -0.024 ± 0.0071 | -0.0395 ± 0.011 | -0.002 ± 0.0099 | 0.061 ± 0.025 | 0.048 ± 0.037 | 0.0105 ± 0.028 | 0.007 ± 0.0085 | -0.096 ± 0.016 | 0.0125 ± 0.018 | -0.0055 ± 0.0064 | 0.0075 ± 0.012 | -0.0075 ± 0.016 | -0.011 ± 0.014 | -0.039 ± 0.0071 | 0.009 | -0.0145 ± 0.00071 | 0.009 ± 0.05 | -0.0895 ± 0.054 |
| HDF3CGF:EGFR | -0.018 ± 0.09 | -0.0115 ± 0.057 | -0.064 ± 0.041 | -0.0165 ± 0.016 | -0.056 ± 0.0057 | -0.034 ± 0.0028 | 0.0025 ± 0.026 | -0.006 ± 0.038 | 0.015 ± 0.047 | -0.0195 ± 0.012 | -0.0115 ± 0.011 | -0.01 ± 0.057 | -0.0215 ± 0.077 | -0.022 ± 0.09 | 0.047 ± 0.03 | 0.034 ± 0.024 | 0.044 ± 0.064 | 0.0275 ± 0.083 | -0.31 ± 0.071 |
| BE3C:Keratin 8/18 | -0.0165 ± 0.056 | -0.002 ± 0.05 | -0.003 ± 0.03 | -0.006 ± 0.0085 | -0.006 ± 0.048 | -0.0065 ± 0.013 | 0 ± 0.0099 | -0.0095 ± 0.013 | -0.006 ± 0.0014 | 0.0005 ± 0.005 | -0.0195 ± 0.0078 | -0.0135 ± 0.022 | -0.0055 ± 0.005 | -0.0075 ± 0.015 | -0.009 ± 0.0085 | 0.0065 ± 0.04 | -0.016 ± 0.035 | 0.018 ± 0.025 | 0.0085 ± 0.033 |
